Source: US20060148858A1, “1, 2-Azole derivatives with hypoglycemic and hypolipidemic activity” (priority 2002, published 2006)
pEC50: −log10 of the molar value. Where two headings read alike, the source gives them in different places.

Columns and labels:
[1] = tested on: KKAY mice; experiment: Plasma anti-arteriosclerosis index-enhancing action in mice (Test Example 2); format: in vivo; conditions: Mus musculus, po, 96 h, 0.005% in powdery diet, four days, percent increase of (HDL cholesterol/total cholesterol)x100, non-treatment group taken as 100%
Procedure: Test compounds were mixed in a powdery diet (CE-2, Japan Clea) at the concentration of 0.005%, and freely given to KKAY mice (9 to 12 weeks old, 5 mice per group), a model of obese and non-insulin dependent diabetes (type 2 diabetes), for four days. During this period, water was given freely. Blood was sampled from orbital venous plexus and components in plasma separated from blood were determined. Total cholesterol levels were determined by using L type Wako Cholesterol (Wako Pure Chemical Industries, Ltd.). Precipitation reagent for HDL cholesterol (Wako Pure Chemical Industries, Ltd.) was added to a part of the plasma to precipitate non-HDL lipoprotein, and cholesterol (HDL cholesterol) in the resulting supernatant was determined. The plasma anti-arteriosclerosis index [(HDL cholesterol/total cholesterol)×100] was calculated by using these cholesterol levels.
In the Table, “Plasma anti-arteriosclerosis index-enhancing action (%)” represents the percent increase (%) of plasma anti-arteriosclerosis index in the treatment group, when the plasma anti-arteriosclerosis index in the non-treatment group is taken as 100%.

[2] = biological target: T1, PPARδ-RXRα heterodimer (Homo sapiens, UniProt Q03181); experiment: PPARδ-RXRα heterodimer ligand activity, luciferase reporter in COS-1 transformant (Test Example 4); format: cell-based; conditions: COS-1 transformant (hPPARδ, hRXRα, reporter), 36-48 hours, concentration for 50% of the maximum fold induction
T1 construct: expressed in transfected cells; host or cells: COS-1
T1 sequence (Q03181 1-441): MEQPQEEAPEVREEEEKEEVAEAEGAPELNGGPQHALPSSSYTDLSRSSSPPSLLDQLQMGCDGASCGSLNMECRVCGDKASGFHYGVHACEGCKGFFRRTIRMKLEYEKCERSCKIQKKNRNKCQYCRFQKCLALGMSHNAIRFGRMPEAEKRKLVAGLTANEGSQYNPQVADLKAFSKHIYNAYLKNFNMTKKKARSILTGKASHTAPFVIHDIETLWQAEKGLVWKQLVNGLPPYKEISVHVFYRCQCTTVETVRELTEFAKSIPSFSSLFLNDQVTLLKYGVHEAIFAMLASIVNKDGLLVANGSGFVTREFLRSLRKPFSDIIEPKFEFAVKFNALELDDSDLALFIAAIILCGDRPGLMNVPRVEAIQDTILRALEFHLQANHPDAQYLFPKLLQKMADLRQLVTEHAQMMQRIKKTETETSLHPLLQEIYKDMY
T1 sequence (P19793 1-462 partner): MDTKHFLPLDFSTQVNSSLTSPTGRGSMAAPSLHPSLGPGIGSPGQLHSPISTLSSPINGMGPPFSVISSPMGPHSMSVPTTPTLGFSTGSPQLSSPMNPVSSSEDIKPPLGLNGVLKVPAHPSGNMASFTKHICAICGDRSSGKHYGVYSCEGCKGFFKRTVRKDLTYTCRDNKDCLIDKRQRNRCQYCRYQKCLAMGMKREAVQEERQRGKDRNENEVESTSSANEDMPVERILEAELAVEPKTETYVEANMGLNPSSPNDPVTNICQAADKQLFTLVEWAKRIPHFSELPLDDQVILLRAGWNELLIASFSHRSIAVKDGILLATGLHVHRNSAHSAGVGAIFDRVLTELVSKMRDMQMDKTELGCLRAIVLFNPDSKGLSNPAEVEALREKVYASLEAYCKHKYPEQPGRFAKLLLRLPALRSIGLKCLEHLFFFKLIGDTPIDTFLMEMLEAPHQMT
In short: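 COS-1 cells transiently co-transfected with human PPARδ, human RXRα, PPRE-luciferase reporter and pRL-tk, then exposed to compound 36-48 h at 37 °C in DMEM with 0.1% fatty acid-free BSA. Luciferase read as fold induction over untreated; EC50 at 50% of maximal fold induction.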

[3] = tested on: KKAY mice; experiment: Hypoglycemic and hypolipidemic actions in mice (Test Example 1); format: in vivo; conditions: Mus musculus, po, 96 h, 0.005% in powdery diet, four days, non-treated group taken as 100%
Procedure: Test compounds were mixed in a powdery diet (CE-2, Japan Clea) at the concentration of 0.005%, and freely given to KKAY mice (9 to 12 weeks old, 5 mice in a group), a model of obese and non-insulin dependent diabetes (type 2 diabetes), for four days. During this period, water was given freely. Blood was sampled from orbital venous plexus, and glucose and triglyceride levels in plasma separated from blood were determined enzymatically using L type Wako Glu2 (Wako Pure Chemical Industries, Ltd.) or L type Wako TG·H (Wako Pure Chemical Industries, Ltd.), respectively.
In the table, “hypoglycemic action (%)” means the rate of decrease (%) in the blood glucose level of the treated group when the blood glucose level of the non-treated group is taken as 100%. In addition, the “hypolipidemic action (%)” means the rate of decrease (%) in the blood triglyceride level of the treated group when the blood triglyceride level of the non-treated group is taken as 100%.

[4] = rate of decrease in blood glucose level, read-out: Hypoglycemic action (%)
[5] = rate of decrease in blood triglyceride level, read-out: Hypolipidemic action (%)

| SMILES | melting point [°C] | pEC50 [2] | change in vivo at 0.005 % in diet [1] [%] | inhibition in vivo at 0.005 % in diet [3, 4] [%] | inhibition in vivo at 0.005 % in diet [3, 5] [%] |
| --- | --- | --- | --- | --- | --- |
| CCC(CC)c1nn(-c2ccc(Cl)cn2)cc1CCCOc1c(C)cccc1CC(=O)O [Example 224, (2-{3-[1-(5-chloro-2-pyridyl)-3-(1-ethylpropyl)-1H-pyrazol-4-yl]propoxy}-3-methylphenyl)acetic acid] | 106 to 107 |  | 14 | 48 | 60 |
| CCOc1cccc(CC(=O)O)c1OCCCc1cn(-c2ccc(Cl)cn2)nc1C(CC)CC [Example 225, (2-{3-[1-(5-chloro-2-pyridyl)-3-(1-ethylpropyl)-1H-pyrazol-4-yl]propoxy}-3-ethoxyphenyl)acetic acid] | 92 to 93 |  | 12 | 31 | 35 |
| CCc1cccc(CC(=O)O)c1OCCCc1cn(-c2ccc(Cl)cn2)nc1C(CC)CC [Example 253, (2-{3-[1-(5-chloro-2-pyridinyl)-3-(1-ethylpropyl)-1H-pyrazol-4-yl]propoxy}-3-ethylphenyl)acetic acid] | 114 to 115 |  | 16 | 49 | 35 |
| CCCc1nn(-c2ccc(C(F)(F)F)cn2)cc1CCCOc1c(CC(=O)O)cccc1OCC [Example 260, [3-ethoxy-2-(3-{3-propyl-1-[5-(trifluoromethyl)-2-pyridyl]-1H-pyrazol-4-yl}propoxy)phenyl]acetic acid] | 133 to 134 |  | 22 | 42 | 44 |
| CC(C)c1nn(-c2ccc(C(F)(F)F)cn2)cc1CCCOc1nn(C)cc1CC(=O)O [Example 299, [3-(3-{3-isopropyl-1-[5-(trifluoromethyl)-2-pyridinyl]-1H-pyrazol-4-yl}propoxy)-1-methyl-1H-pyrazol-4-yl]acetic acid] | 122 to 123 |  | 11 |  |  |
| CCOc1cccc(CC(=O)O)c1OCCCc1cn(-c2ccc(C(F)(F)F)cn2)nc1C(C)C [Example 300, [3-ethoxy-2-(3-{3-isopropyl-1-[5-(trifluoromethyl)-2-pyridinyl]-1H-pyrazol-4-yl}propoxy)phenyl]acetic acid] | 141 to 142 |  | 12 | 36 | 39 |
| CCn1cc(CC(=O)O)c(OCCCc2cn(-c3ccc(C(F)(F)F)cn3)nc2C(C)C)n1 [Example 313, [1-ethyl-3-(3-{3-isopropyl-1-[5-(trifluoromethyl)-2-pyridinyl]-1H-pyrazol-4-yl}propoxy)-1H-pyrazol-4-yl]acetic acid] | 99 to 100 |  | 15 | 51 | 48 |
| CC(C)c1nn(-c2ccc(C(F)(F)F)cn2)cc1CCCOc1c(CC(=O)O)cnn1C [Example 318, [5-(3-{3-isopropyl-1-[5-(trifluoromethyl)-2-pyridinyl]-1H-pyrazol-4-yl}propoxy)-1-methyl-1H-pyrazol-4-yl]acetic acid] | 146 to 148 |  | 22 |  |  |
| CCOc1nn(-c2ccc(C(F)(F)F)cn2)cc1CCCOc1nn(CC)cc1CC(=O)O [Example 335, [3-(3-{3-ethoxy-1-[5-(trifluoromethyl)-2-pyridinyl]-1H-pyrazol-4-yl}propoxy)-1-ethyl-1H-pyrazol-4-yl]acetic acid] | 108 to 109 |  | 12 |  |  |
| COc1cccc(CC(=O)O)c1OCCCc1cn(-c2ccc(C#N)nn2)nc1C(C)C [Example 337, (2-{3-[1-(6-cyanopyridazin-3-yl)-3-isopropyl-1H-pyrazol-4-yl]propoxy}-3-methoxyphenyl)acetic acid] |  |  | 24 | 44 | 48 |
| CCC(CC)c1nn(-c2ccc(C(F)(F)F)nn2)cc1CCCOc1c(CC(=O)O)cccc1OC [Example 339, [2-(3-{3-(1-ethylpropyl)-1-[6-(trifluoromethyl)pyridazin-3-yl]-1H-pyrazol-4-yl}propoxy)-3-methoxyphenyl]acetic acid] | 81 to 82 |  | 22 | 50 | 54 |

The next lines start with results.

| melting point [°C] | pEC50 [2] | SMILES | change in vivo at 0.005 % in diet [1] [%] | inhibition in vivo at 0.005 % in diet [3, 4] [%] | inhibition in vivo at 0.005 % in diet [3, 5] [%] |
| --- | --- | --- | --- | --- | --- |
| 82 to 83 | 8.07 | CC(C)c1nn(-c2ccc(C(F)(F)F)cn2)cc1CCCOc1cccc(CC(=O)O)c1 [Example 22, [3-(3-{3-isopropyl-1-[5-(trifluoromethyl)-2-pyridyl]-1H-pyrazol-4-yl}propoxy)phenyl]acetic acid] | 12 |  |  |
| 106 to 107 | 8.09 | Cc1nn(-c2ccc(C(F)(F)F)cn2)cc1COc1ccc(OC(C)(C)C(=O)O)cc1 [Example 34, 2-methyl-2-(4-{3-methyl-1-[5-(trifluoromethyl)-2-pyridyl]-1H-pyrazol-4-ylmethoxy}phenoxy)propionic acid] | 20 | 49 | 77 |
| 96 to 97 | 8.80 | CCOc1cc(OCCCc2cn(-c3ccc(C(F)(F)F)cn3)nc2OCC)ccc1CCC(=O)O [Example 35, 3-[2-ethoxy-4-(3-{3-ethoxy-1-[5-(trifluoromethyl)-2-pyridyl]-1H-pyrazol-4-yl}propoxy)phenyl]propionic acid] | 14 | 30 | 32 |
| 114 to 115 |  | COc1cccc(CC(=O)O)c1OCCCc1cn(-c2ccc(C(F)(F)F)cc2)nc1C(C)C [Example 185, [2-(3-{3-isopropyl-1-[4-(trifluoromethyl)phenyl]-1H-pyrazol-4-yl}propoxy)-3-methoxyphenyl]acetic acid] | 15 | 47 | 43 |
| 105 to 106 |  | CCCc1nn(-c2ccc(C(F)(F)F)cn2)cc1CCCOc1nn(CC)cc1CC(=O)O [Example 305, [1-ethyl-3-(3-{3-propyl-1-[5-(trifluoromethyl)-2-pyridinyl]-1H-pyrazol-4-yl}propoxy)-1H-pyrazol-4-yl]acetic acid] | 22 | 50 | 55 |
| 120 to 121 |  | CCn1ncc(CC(=O)O)c1OCCCc1cn(-c2ccc(C(F)(F)F)cn2)nc1C(C)C [Example 322, [1-ethyl-5-(3-{3-isopropyl-1-[5-(trifluoromethyl)-2-pyridinyl]-1H-pyrazol-4-yl}propoxy)-1H-pyrazol-4-yl]acetic acid] | 14 |  |  |
